# Measured values reported in patent publication US11607404B2, “Combinations of RAD51 and PARP inhibitors” (Cyteir Therapeutics, Inc., priority 2019, dated 2023).
# How the values were obtained:
# [1] = Pharmacokinetic (PK) study; type: in vivo, Rat; conditions: po @ 80 mg/kg (30% PEG400, 10% Vitamin E TPGS in water)
# Protocol: PK studies in mice were used to determine the fate of the compounds in a whole organism. Rats were treated with the compounds either orally of via IV at the indicated doses and followed for up to 24 hours. Plasma samples were taken at different time points and analyzed by LC-MS.
# [2] = system: HBCx1 model; experiment: Tumor growth inhibition, subcutaneous engrafted tumor model; type: in vivo, mice; conditions: HRD Positive, RAD51 High, BRCA WT, PALB2 WT, 67A 80 mg/kg QD, olaparib 100 mg/kg QD, combo both
# Protocol: (§1) Immunodeficient mice were subcutaneously engrafted in the rear flank with the tumor cells. The tumors were allowed to grow to a size of about 100 to about 200 mm^3 prior to being randomized and grouped into treatment arms. For models […] through […] the four treatment arms were vehicle, Compound 67A at 80 mg/kg QD, olaparib at 100 mg/kg QD, and Compound 67A+Olaparib at 80 mg/kg QD and 100 mg/kg QD, respectively. For models J000101173 through TM00091 the treatment arms were vehicle, Compound 67A at 40 mg/kg QD, olaparib at 50 mg/kg QD, and Compound 67A+Olaparib at 40 mg/kg QD and 50 mg/kg QD, respectively. The tumors were measured either once weekly or twice weekly.
# (§2) Percent Tumor Growth Inhibition (% TGI) was calculated by taking the mean volume of each of the treatment arms, and comparing the treatment arms to the vehicle arms using the following equation
# [3] = system: TM01079 model; experiment: as above; type: in vivo, mice; conditions: HRD Positive, RAD51 Low, BRCA1 Meth, PALB2 WT, 67A 40 mg/kg QD, olaparib 50 mg/kg QD, combo both
# Protocol: as §1, §2
# [4] = system: J000101173 model; experiment: as above; type: in vivo, mice; conditions: HRD Positive, RAD51 Low, BRCA WT, PALB2 WT, 67A 40 mg/kg QD, olaparib 50 mg/kg QD, combo both
# Protocol: as §1, §2
# [5] = Human liver microsome stability; type: in vitro ADME; conditions: percentage of hepatic blood flow
# Protocol: The stability of the claimed compounds was determined in the presences of human liver microsomes. The compounds were incubated with the microsomes at 37° C. for 45 minutes. Samples were analyzed using LC-MS/MS. Data analysis included half-life, clearance rate, and the percentage of hepatic blood flow (% QH) for each of the compounds in the different species.
# [6] = system: Daudi cell line (AID positive); experiment: Primary screening cell killing assay (Cell-Titer Glo, Day 7); type: cell-based; conditions: Homo sapiens, 168 h; Daudi cells (AID positive), cell death on Day 7; read-out: AID+ EC50
# Protocol: Primary screening was a phenotypic screen that utilized the synthetic lethal interaction between AID and RAD51 to identify compounds that were both potent and on target. AID expressing cells are dependent upon RAD51 for survival; inhibiting RAD51 in AID positive cells results in a cytotoxic effect.
# The first step was to set up a cell killing assay in the Daudi cell line (AID positive). A 96 well u-bottom plate was prepared by writing the experiment number, plate number, date and initials in the top right corner of the plate lid. With a sterile 300 ml reservoir, and 25 ml serological pipette, evaporation buffer media was pipetted into reservoir in 25 ml increments. Using the liquid handler, 150 ul of evaporation buffer media was pipetted from reservoir into rows A and H, and Columns 1 and 12 of the 96 well u-bottom plate. Cell cultures were counted to obtain the density of cells per ml, and the culture viability. The cell density information was used to obtain 1,000,000 cells from culture using a 5 mL serological pipette into an epi tube. The cell density information from the culture was used to calculate the number of cells and volume of media needed for the assay to seed 1250 cells in 130 ul of media per available culture well in the 96 well u-bottom plate. Rows B through F were used for cells (50 wells in total), with row G left for an empty media control. The calculation was overestimated by 10 mL to account for the dead volume in the 300 ml reservoir. Once the media volume was calculated, the appropriate volume of media was pipetted in 25 mL increments into the 250 mL bottle using a 25 mL serological pipette. The 250 ml bottle was capped tightly, and placed into a 37° C. water bath for 2 minutes. While the culture media was warming, 10 mL of fresh media was pipetted from the 500 mL culture media bottle into a sterile 25 mL reservoir. Using the Eppendorf multichannel pipette, 130 ul of media was piptted from the 25 mL reservoir into row G of the 96 well u-bottom plate. Once the 250 mL bottle of media was warmed, the volume of culture needed was pipetted into the bottle, and mixed gently with a 25 mL serological pipette as to not create bubbles, and then the contents of the bottle were pipetted into a new 300 mL reservoir. Using the liquid handler, 130 ul of culture was pipetted from the 300 mL reservoir into rows B through F of the 96 well u-bottom plate. Once the culture was added, the plate was placed into a 37° C. incubator until the compound master plate was prepared for use.
# Two 96 well u-bottom plates were prepared by writing the master plate name in the upper right corner of the plate lid. Labeling one DMSO master and the other Media Master. The compounds of interest were obtained from the laboratory freezer, and placed into a 25 well storage box with a lid, and set the box aside. The compounds were vortexed after thawing but before use. Using an automatic multichannel pipette, 20 ul of 100% DMSO was pipetted into wells B3-B11 through G3-G11 of the DMSO master plate. For each compound on the master plate, 50 ul of the compound were pipetted in the appropriate well of row 2 (reference plate map to determine appropriate well). A serial dilution was prepared beginning by aspirating 20 ul from row 2 and mixing with row 3, repeating until row 11 was reached. Using the liquid handler, 194 ul of Daudi media was dispensed into wells B2-B11 through G2-G11 of the Media master plate. Using the liquid handler, 6 ul from the DMSO master plate was aspirated and dispensed into the media master plate, mixing 100 ul twice.
# Compounds from master plate were then added to the culture plate. The culture plates were removed from the incubator, and set inside the biosafety cabinet. Using a liquid handler, 20 ul from wells B2 to B11 through G2 to G11 of master plate were aspirated, and dispensed into wells B2 to B11 through G2 to G11 of culture plate. This set was continued with each culture plate. […]
smiles,measurement,setting,value
"CC(C)OC(=O)Nc1ccc(-c2cnc([C@H]3CC[C@H](NC(=O)OC(C)C)CC3)s2)c(S(=O)(=O)NC(C)(C)C)c1 [Compound 67A, trans-isopropylN-[3-(tert-butylsulfamoyl)-4-[2-[4-(isopropoxycarbonylamino)cyclohexyl]thiazol-5-yl]phenyl]carbamate]",F (%) @ 5 mg/kg,[1]; Rat Female,86.5%
same,F (%) @ 5 mg/kg,[1]; Rat Male,46.9%
same,% TGI,[2],28.75%
same,% TGI,[3],26.73%
same,% TGI,[4],19.87%
same,Human Liver Microsome Stability % QH,[5],<20.3%
same,EC50,[6],≤ 1000 nM
